Some test systems named below: A498 renal; ACHN renal; HCT-15 colon; HT29 colon; KM12 colon; MCF7 breast; SF-295 CNS; SK-MEL-28 melanoma; SK-OV-3 ovarian; M14 melanoma.
What all share (experiment): NCI-60 cell line screen, 48 h

The source of these data is PubChem BioAssay (NCI).

Structures are written as SMILES.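 Dose response: 5 concentrations. Exposure: 48 h. Format: 96-well plates. Endpoint: linear interpolation; highest concentration if not reached. The concentration for 50% growth inhibition is given as GI50. Definition used: TGI = concentration required for complete inhibition of growth.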 Where only a bound is given, the exact number is not on record here.

In the case of `COC(=O)CN(CC(=O)NCCCBr)C1CCCCC1N(CC(=O)OC)CC(=O)OC` (stereo not drawn), the TGI in the test on A498 renal, in the test on ACHN renal, with HCT-15 colon, in the test with HT29 colon, in the test on KM12 colon and with MCF7 breast was over 100 µM throughout. Also, the TGI in the test with SF-295 CNS, with SK-MEL-28 melanoma and in the test on SK-OV-3 ovarian was over 100 µM throughout.
With `C[C@@]1(CCCCCCCCCCc2ccccc2)C[C@@]2(C)OC(=O)C[C@H]2OO1`, the TGI was 40.8 µM in the test on A498 renal; 4.88 µM in the test with ACHN renal; 44.3 µM in the test on HCT-15 colon; 31.5 µM with HT29 colon; 38.6 µM with KM12 colon; 2.98 µM in the test on M14 melanoma. Besides, the TGI came out at 35 µM in the test with MCF7 breast, 4.97 µM in the test on SF-295 CNS, 4.2 µM in the test with SK-MEL-28 melanoma and 73.3 µM in the test with SK-OV-3 ovarian.
For the molecule `CC(C)C(Nc1ncnc2nc[nH]c12)C(=O)O` (stereo not drawn), the TGI in the test with A498 renal, in the test on ACHN renal, in the test with HCT-15 colon, in the test with HT29 colon, in the test on KM12 colon and with M14 melanoma was over 100 µM in each case. For the same molecule, the TGI with MCF7 breast, in the test on SF-295 CNS, in the test on SK-MEL-28 melanoma and with SK-OV-3 ovarian was over 100 µM each time.
As for `c1coc(-c2nccc3c2[nH]c2ccccc23)c1`, the TGI in the test with A498 renal, in the test on ACHN renal, in the test with HCT-15 colon, in the test on HT29 colon, in the test with KM12 colon and with M14 melanoma was over 100 µM in each case. In addition, the TGI in the test with MCF7 breast, in the test with SF-295 CNS, with SK-MEL-28 melanoma and in the test on SK-OV-3 ovarian was over 100 µM each time.
Take `CCC(C)(C)c1cc(O)c(C(C)(C)CC)cc1O`: the GI50 with A498 renal is 0.732 µM; with ACHN renal, 4.62 µM; in the test with HCT-15 colon, 3.66 µM; in the test on HT29 colon, 2.13 µM; with KM12 colon, 3.52 µM; in the test on MCF7 breast it was 2.46 µM. The results for the GI50 with SF-295 CNS, with SK-MEL-28 melanoma and with SK-OV-3 ovarian were 2.25 µM, 2.82 µM and 4.41 µM, respectively. Besides, the TGI in the test on A498 renal amounted to 8.5 µM; in the test with ACHN renal it was 16.1 µM; in the test on HCT-15 colon it was 15.1 µM; in the test with HT29 colon, 5.27 µM; in the test on KM12 colon it was 12.6 µM; with MCF7 breast it was 11.6 µM. Also, the TGI is 5.18 µM in the test with SF-295 CNS, 10.9 µM in the test on SK-MEL-28 melanoma and 14.9 µM in the test on SK-OV-3 ovarian.
`CCOC(=O)/C=C/C(=O)O/C=C/[N+](=O)[O-]`: the TGI with A498 renal, in the test with ACHN renal, in the test with HCT-15 colon, in the test on HT29 colon, with KM12 colon and in the test on M14 melanoma was over 100 µM each time. Moreover, the TGI in the test on MCF7 breast, in the test with SF-295 CNS and with SK-OV-3 ovarian was over 100 µM throughout.
Consider `COc1cccc2c1NC(=O)Cc1c-2[nH]c2ccccc12`, for which the TGI in the test with A498 renal, in the test with ACHN renal, with HCT-15 colon, with HT29 colon, in the test on KM12 colon and in the test on M14 melanoma was over 100 µM each time. Besides, the TGI in the test with MCF7 breast, with SF-295 CNS, in the test on SK-MEL-28 melanoma and with SK-OV-3 ovarian was over 100 µM throughout.
As to `COC(C/C(=C/CO[Si](C(C)C)(C(C)C)C(C)C)C(=O)N(C(=O)OC(C)(C)C)c1ccccc1I)OC`, the TGI in the test on A498 renal, with ACHN renal, with HCT-15 colon, in the test on HT29 colon, with KM12 colon and in the test with M14 melanoma was over 100 µM in each case. The TGI is 41.2 µM with MCF7 breast, 41 µM with SF-295 CNS, over 100 µM in the test with SK-MEL-28 melanoma and over 100 µM in the test on SK-OV-3 ovarian.
For `Cc1cc2c(c(C(=O)NCC(=O)N[C@@H](C)C(=O)OCc3ccccc3)c1)Oc1c(cc(C)cc1C(=O)NCC(=O)N[C@@H](C)C(=O)OCc1ccccc1)S2`, the TGI in the test with A498 renal, in the test with ACHN renal, in the test on HCT-15 colon, in the test with HT29 colon, in the test on KM12 colon and with M14 melanoma was over 100 µM each time. Further, the TGI in the test with MCF7 breast, with SF-295 CNS and in the test with SK-OV-3 ovarian was over 100 µM in each case.
With `COc1ccccc1NC(=S)N=Nc1c(O)[nH]c2ccccc12`, the TGI in the test with A498 renal, with ACHN renal, in the test on HCT-15 colon, in the test on HT29 colon, with KM12 colon and with M14 melanoma was over 100 µM throughout. Further, the TGI was over 100 µM in the test on MCF7 breast, over 100 µM in the test on SF-295 CNS, 23.6 µM in the test on SK-MEL-28 melanoma and over 100 µM with SK-OV-3 ovarian.
Regarding `COc1cc(CC(C)=O)cc(OC)c1`, the TGI in the test with A498 renal, with ACHN renal, with HCT-15 colon, in the test with HT29 colon, in the test with M14 melanoma and in the test with MCF7 breast was over 100 µM throughout. Also, the TGI in the test on SF-295 CNS, with SK-MEL-28 melanoma and with SK-OV-3 ovarian was over 100 µM each time.
`CC(C)NC(=O)OCc1c(COC(=O)NC(C)C)c(-c2ccc[n+](COC(=O)Cc3ccccc3)c2)n2c1CCC2`: the TGI in the test on A498 renal is 44.7 µM; with ACHN renal, 48.4 µM; in the test on HCT-15 colon it was over 100 µM; in the test with HT29 colon, over 100 µM; with KM12 colon, over 100 µM; with M14 melanoma, over 100 µM. Further, the TGI with MCF7 breast, in the test with SF-295 CNS, in the test on SK-MEL-28 melanoma and with SK-OV-3 ovarian was over 100 µM each time.
As for `COc1ccc2c(c1)CC[C@@H]1C2CC[C@]2(C)C(=O)N(CCN(C)C)C(=O)CC12` (stereo partly drawn), the TGI with A498 renal, with ACHN renal, with HT29 colon, in the test with KM12 colon, with M14 melanoma and in the test on MCF7 breast was over 100 µM throughout. The TGI with SF-295 CNS, in the test on SK-MEL-28 melanoma and in the test with SK-OV-3 ovarian was over 100 µM each time.
